Source: PMC11019746 (ACS Pharmacology & Translational Science, 2024)
Read-outs that look alike come from different tables or passages of the source. Marks after values point to notes of the source that are not given here. One block for each compound: values may come before it.

Tests used:
Y4R [1] = target: T1, Y4R (Homo sapiens, UniProt P50391); conditions: cited from earlier work
[2] = target: T2, Y4R^SwBac displaying BBVs (Homo sapiens, UniProt P50391); assay: Fluorescence anisotropy Y4R competition binding with 16 (Y4R^SwBac BBVs); conditions: DPBS, 16 (0.5 nM) as labeled probe, read-out: pKi FA, 137 mM Na+ (converted)
T2 construct: made in house; host or cells: Sf9 insect cells (budded baculovirus particles; MultiBac, with or without the SweetBac module)
Description: Two types of MultiBac baculoviruses were used: one type encodes only for hY4R resulting in BBVs displaying Y4R devoid of a mammalian-like glycosylation (herein termed Y4R^nonglyco) and the second type additionally encodes for enzymes providing a mammalian-like glycosylation in Sf9 cells (herein termed Y4R^SwBac; see also Section Molecular Cloning). The obtained viruses were collected by centrifugation at 1600g for 10 min, and the virus titer was determined with an image-based cell-size estimation assay as described elsewhere.[64] […]
FA measurements were carried out using a Synergy NEO multimode plate reader (BioTek, Winooski, VT) and black, half-area, flat-bottom polystyrene NBS (nonbinding surface) 96-well plates (Corning, Corning, NY, product no. 3993). Polarizing excitation (530 ± 15 nm) and dual emission (590 ± 17.5 nm) filters with a dichroic mirror were used, allowing the simultaneous detection of parallelly and perpendicularly polarized fluorescence emission. […]
FA signals were measured for 1.5 h.
Data processing for FA binding assays was assisted by the software Aparecium 2.0.20 developed in house (http://www.gpcr.ut.ee/software.html). Prior to the calculation of FA using eq 1,[19] the measured parallel [I∥(t)] and perpendicular [I⊥(t)] fluorescence intensities were blank-corrected on the basis of the values obtained from wells containing BBVs but no receptor ligand. […]

Y4R [3] = target: T1, Y4R; assay: Y4R miniGsi recruitment assay (HEK293T-NlucN-mGsi/Y4R-NlucC cells); type: cell-based; set-up: expressed in transfected cells; host or cells: HEK293T; conditions: for EC50: HEK293T-NlucN-mGsi/Y4R-NlucC cells; for Emax: read-out: miniGsi recruitment Emax ± SEM; as to miniGsi recruitment Emax ± SEM: relative to 1 µM hPP (100%)
Description: Furimazine was used as nanoluciferase substrate. The original stock was diluted 1:1000 in L15-HEPES to obtain the feed solution for the assay. Data analysis was performed based on the areas under the curves (time window: 45 min starting with the agonist addition) using GraphPad Prism 5. […] Efficacies Emax correspond to the upper plateaus of the normalized concentration–response curves.

hY4R [4] = target: T3, hY4R (Homo sapiens, UniProt P50391); assay: Flow cytometric Y4R competition binding with 16 as labeled ligand; set-up: expressed in transfected cells; host or cells: CHO (co-expressing Gqi5 and mitochondrially targeted aequorin); conditions: intact CHO-hY4R-Gqi5-mtAEQ cells
Description: The latter was used for injection of the samples of saturation and competition binding experiments. At least three individual experiments were performed in duplicate (kinetic experiments) or triplicate (saturation and competition binding). […] Measurements were stopped after counting of 2000–10000 gated events.
2 to 3 days prior to the experiment, cells were seeded in T75 or T175 culture flasks. On the day of the experiment, cells were detached by trypsinization, suspended in culture medium, and centrifuged. […] HCl (nonlabeled ligands, saturation, and kinetic experiments).

hY1R [5] = target: T4, hY1R (Homo sapiens, UniProt P25929); conditions: cited from earlier work
T4 construct: host or cells: SK-N-MC neuroblastoma cells
T4 sequence (P25929 1-384): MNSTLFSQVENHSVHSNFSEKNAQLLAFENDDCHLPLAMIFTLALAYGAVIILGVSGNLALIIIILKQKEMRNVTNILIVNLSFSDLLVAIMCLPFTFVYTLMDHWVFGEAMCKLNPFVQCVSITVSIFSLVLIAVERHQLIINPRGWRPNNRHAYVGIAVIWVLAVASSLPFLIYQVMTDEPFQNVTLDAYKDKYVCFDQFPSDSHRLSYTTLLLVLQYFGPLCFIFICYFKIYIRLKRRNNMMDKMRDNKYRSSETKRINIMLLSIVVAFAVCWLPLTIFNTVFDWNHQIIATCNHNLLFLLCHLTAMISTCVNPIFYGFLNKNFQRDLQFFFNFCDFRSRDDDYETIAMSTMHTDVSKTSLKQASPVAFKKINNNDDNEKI

hY4R-Nluc(intraECL2) = hY4R-Nluc(intraECL2) (Homo sapiens, UniProt P50391, INS195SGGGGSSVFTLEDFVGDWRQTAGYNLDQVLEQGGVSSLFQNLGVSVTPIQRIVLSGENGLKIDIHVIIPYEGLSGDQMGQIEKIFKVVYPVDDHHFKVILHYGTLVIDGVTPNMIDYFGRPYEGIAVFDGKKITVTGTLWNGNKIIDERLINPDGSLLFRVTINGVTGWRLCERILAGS); assay: NanoBRET Y4R competition binding with 16
Description: One the day prior to the experiment, HEK293T-hY4R-Nluc(intraECL2) cells were detached from the culture flask by trypsinization, centrifuged (500g, 5 min), and resuspended in FBS-free L15-HEPES. The cell density was adjusted to 1.14 × 10^6 cells/mL, and the cells were seeded into white 96-well plates (Brand, Wertheim, Germany) (70 μL, 80,000 cells per well) and incubated overnight in a water-saturated atmosphere (only atmospheric CO2). […] The final BSA concentration in the assay was 1.5% (30 μL of a solution containing 5% BSA added to 70 μL of BSA-free medium, as outlined below).
All BRET measurements were performed at a temperature of 25 °C using a TECAN Infinite Lumi plate reader (Tecan, Crailsheim, Germany) equipped with an injection module. Bioluminescence of the nanoluciferase was detected using a 460/35 nm band-pass (460/35 BP) filter. The emission of the fluorescent ligands was detected through a 610 nm long-pass (610 LP) filter. […]
Total binding data from competition binding experiments were plotted as corrected BRET ratio over log(competitor concentration, M) and analyzed by a four-parameter logistic equation (log(inhibitor) vs response–variable slope, GraphPad Prism 5) to obtain the TOP value (upper curve plateau), which was used for data normalization (100% = TOP value, 0% = average of the corrected BRET ratio obtained from unspecific binding). […]

hY2R [6] = target: T5, hY2R (Homo sapiens, UniProt P49146); conditions: cited from earlier work
T5 construct: host or cells: CHO
T5 sequence (P49146 1-381): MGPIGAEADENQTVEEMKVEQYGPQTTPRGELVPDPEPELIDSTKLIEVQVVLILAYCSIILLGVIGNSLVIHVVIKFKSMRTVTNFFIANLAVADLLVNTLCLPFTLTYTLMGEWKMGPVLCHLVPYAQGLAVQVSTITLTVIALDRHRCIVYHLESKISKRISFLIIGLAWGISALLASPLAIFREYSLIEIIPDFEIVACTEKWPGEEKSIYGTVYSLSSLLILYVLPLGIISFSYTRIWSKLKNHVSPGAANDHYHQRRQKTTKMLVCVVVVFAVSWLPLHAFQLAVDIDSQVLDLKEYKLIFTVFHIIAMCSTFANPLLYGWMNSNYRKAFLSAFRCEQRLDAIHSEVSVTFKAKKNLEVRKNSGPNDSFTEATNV

hY5R [7] = target: T6, hY5R (Homo sapiens, UniProt Q15761); conditions: cited from earlier work
T6 construct: expressed in transfected cells; host or cells: HEC-1B (human endometrial cancer)
T6 sequence (Q15761 1-445): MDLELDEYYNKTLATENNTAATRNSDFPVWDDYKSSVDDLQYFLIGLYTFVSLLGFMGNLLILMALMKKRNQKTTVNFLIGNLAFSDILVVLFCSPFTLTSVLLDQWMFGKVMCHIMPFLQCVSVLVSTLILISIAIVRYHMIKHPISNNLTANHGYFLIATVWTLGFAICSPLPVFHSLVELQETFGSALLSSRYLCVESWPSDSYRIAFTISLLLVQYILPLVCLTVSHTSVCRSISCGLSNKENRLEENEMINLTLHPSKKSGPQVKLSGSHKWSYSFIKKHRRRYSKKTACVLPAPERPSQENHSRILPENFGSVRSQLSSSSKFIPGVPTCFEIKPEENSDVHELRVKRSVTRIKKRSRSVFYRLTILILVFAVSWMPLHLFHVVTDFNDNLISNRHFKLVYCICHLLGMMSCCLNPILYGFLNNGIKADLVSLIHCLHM

hY4R [8] = target: T3, hY4R; set-up: expressed in transfected cells; host or cells: CHO (co-expressing Gqi5 and mitochondrially targeted aequorin); conditions: cited from earlier work
hY4R [9] = target: T3, hY4R; assay: Y4R cAMP CAMYEN assay (HEK293T-CAMYEN-hY4R cells); type: cell-based; set-up: expressed in transfected cells; conditions: read-out: CAMYEN cAMP Emax ± SEM; also: relative to 1 µM hPP (100%)
Description: The assay was performed with live HEK293T-CAMYEN-hY4R cells applying a reported protocol.[31] Experiments were performed in triplicate. Data processing was performed with GraphPad Prism 9.0 as previously described.[31]

hY1R [10] = target: T4, hY1R; assay: Y1R radioligand competition binding, whole SK-N-MC cells, [3H]UR-MK299; conditions: SK-N-MC neuroblastoma cells, [3H]UR-MK299 c = […]
Description: (§1) All radioligand binding assays were performed at intact Y receptor expressing cells at 23 ± 2 °C.
Competition binding assays at Y1R-expressing SK-N-MC neuroblastoma cells were performed as previously described using [^3H]UR-MK299 as radioligand (concentration: 0.15 nM).[33] […] (logarithmic form in the case of pKi values).

hY2R [11] = target: T5, hY2R; assay: Y2R radioligand competition binding, whole CHO-hY2R cells, [3H]propionyl-pNPY; conditions: read-out: pKi ± SEM hY2R (converted)
Description: as §1

hY4R [12] = target: T3, hY4R; assay: Y4R Ca2+ aequorin assay (CHO-hY4R-Gqi5-mtAEQ cells); type: cell-based; set-up: expressed in transfected cells; host or cells: CHO (co-expressing Gqi5 and mitochondrially targeted aequorin); conditions: read-out: Ca2+-aequorin Emax ± SEM
Description: The assay was performed with live CHO-hY4R-Gqi5-mtAEQ cells as previously described (used buffer: buffer III). Measurements were carried out on a Tecan Infinite Lumi plate reader. Data analysis was performed as reported using GraphPad Prism 5 for the calculation of the area under the curve. […] Efficacies Emax correspond to the upper plateaus of the normalized concentration–response curves.

[13] = Chemical stability in PBS pH 7.4; type: physicochemical; conditions: PBS pH 7.4, room temperature, 48 h, 100 μM
Description: The chemical stability of the fluorescent ligands 16, 17, and 18 was investigated in PBS (adjusted to pH 7.4) at 22 °C. […] After time periods of 0, 6, and 48 h, an aliquot (25 μL) was withdrawn and added to 25 μL of acetonitrile/0.04% aq. TFA 1:9 v/v to obtain a peptide solution with a concentration of 50 μM. 20 μL of this solution were subjected to analytical RP-HPLC analysis using the same system and conditions as described under Analytical HPLC, but applying a different linear gradient: 0–14 min: A/B 90:10–45:55, 14–15 min: 45:55–5:95, 15–19 min: 5:95 (isocratic). A 1:1 mixture of PBS and acetonitrile/0.04% aq. TFA 1:9 v/v (20 μL) was analyzed to obtain the blank chromatogram.

hY5R [14] = target: T6, hY5R; assay: Y5R radioligand competition binding, whole HEC-1B-hY5R cells, [3H]propionyl-pNPY; conditions: [3H]propionyl-pNPY c = 5 nM
Description: as §1
(logarithmic form in the case of pKi values).

Y4R [15] = target: T1, Y4R; conditions: cited from earlier work; remark: listed apart in the source
[16] = target: Y5 receptor (Homo sapiens) (UniProt Q15761); conditions: cited from earlier work
Y4R [17] = target: T1, Y4R; assay: radioligand competition binding; conditions: cited from earlier work
Y4R [18] = target: T1, Y4R; assay: radioligand competition binding (137 mM Na+); conditions: cited from earlier work
[19] = target: Y2 receptor (Homo sapiens) (UniProt P49146); conditions: cited from earlier work
[20] = target: Y1 receptor (Homo sapiens) (UniProt P25929); conditions: cited from earlier work
[21] = DPBS, 16 (1 nM) as labeled probe, read-out: pKi flow cytometry, 137 mM Na+ (converted)
[22] = buffer I, 16 (0.5 nM) as labeled probe, read-out: pKi flow cytometry, Na+ free (converted)
[23] = read-out: pKi ± SEM hY1R (converted)
[24] = read-out: pKi ± SEM hY5R (converted)

Compound: 5-TAMRA-[K18,Nle17,30]hPP (2) (from UniProt P01298)
- Kd (Y4R [1]): 26 nM

- Ki [2]: 0.55 nM
- EC50 (Y4R [3]; read-out: miniGsi recruitment EC50 (converted)): 1.8 nM
- Emax (Y4R [3]): 61 ± 2%
- Ki (hY4R [4]; [21]): 0.708 nM
- Ki (hY4R [4]; [22]): 0.324 nM
- Ki (hY4R-Nluc(intraECL2)): 1.29 nM
Compound: CC(C)C[C@H](NC(=O)[C@@H]1CCCNC(N)=NC(=O)NCCCCNC(=O)CCC(=O)N[C@@H](CCCNC(=N)N)C(=O)N[C@@H](Cc2c[nH]c3ccccc23)C(=O)N1)C(=O)N[C@@H](CCCNC(=N)N)C(=O)N[C@@H](Cc1ccc(O)cc1)C(N)=O [Compound 5]
- Ki (hY1R [5]): > 10000 nM
- pKi hY1R (hY1R [5]): < 5
- Ki (hY2R [6]): > 10000 nM
- pKi hY2R (hY2R [6]): < 5
- Ki (hY5R [7]): > 3000 nM
- pKi hY5R (hY5R [7]): < 5.5

- Ki [2]: 0.398 nM
- Ki (hY4R [4]; [21]): 1.58 nM
- Ki (hY4R [4]; [22]): 0.245 nM
- Ki (hY4R-Nluc(intraECL2)): 0.851 nM
Compound: CCC(=O)NCCCC(=O)N[C@@H]1CC(=O)N[C@@H](CCCNC(=N)N)C(=O)N[C@@H](Cc2ccc(O)cc2)C(=O)N[C@H](C(=O)N[C@@H](CC(C)C)C(=O)N[C@@H](CCCNC(=N)N)C(=O)N[C@@H](Cc2ccc(O)cc2)C(N)=O)CCCNC(N)=NC(=O)NCCCCNC1=O [Compound 7]
- pKi literature, 137 mM Na+ (hY4R [8]): 9.79 ^e

- Emax (hY4R [9]): 93 ± 5%
- Emax (Y4R [3]): 72 ± 9%
- Ki (hY1R [10]; read-out: Ki hY1R (converted)): 120 nM
- Ki (hY1R [10]; [23]): 123 nM
- Ki (hY2R [11]): > 1000 nM
- Emax (hY4R [12]): 66 ± 2%
- chemical stability [13]: excellent stability
- Ki (hY5R [14]; read-out: Ki hY5R (converted)): 480 nM
- Ki (hY5R [14]; [24]): 479 nM
Compound: CC(C)C[C@H](NC(=O)[C@@H]1CCCNC(N)=NC(=O)NCCCCNC(=O)[C@H](NC(=O)CCCNC(=O)CCC#Cc2ccc3c(c2)C(C)(C)C2=C4C=C5C6=[N+](CCC5OC4CCN23)c2ccc(S(=O)(=O)[O-])cc2C6(C)C)CC(=O)N[C@@H](CCCNC(=N)N)C(=O)N[C@@H](Cc2ccc(O)cc2)C(=O)N1)C(=O)N[C@@H](CCCNC(=N)N)C(=O)N[C@@H](Cc1ccc(O)cc1)C(N)=O (some centres unmarked) [Compound 16]

- Emax (hY4R [9]): 90 ± 3%
- EC50 (Y4R [3]; read-out: miniGsi recruitment pEC50 ± SEM (converted)): 85.1 nM
- Emax (Y4R [3]): 70 ± 9%
- Ki (hY1R [10]; [23]): > 1000 nM
- Ki (hY2R [11]): > 1000 nM
- Emax (hY4R [12]): 71 ± 3%
- chemical stability [13]: excellent stability
- Ki (hY5R [14]; [24]): > 1000 nM
Compound: CC(C)C[C@H](NC(=O)[C@@H]1CCCNC(N)=NC(=O)NCCCCNC(=O)[C@H](NC(=O)CCCNC(=O)CCCCCN2/C(=C/C=C/C=C/C3=[N+](CCCCS(=O)(=O)[O-])c4ccccc4C3(C)C)C(C)(C)c3cc(S(=O)(=O)O)ccc32)CC(=O)N[C@@H](CCCNC(=N)N)C(=O)N[C@@H](Cc2ccc(O)cc2)C(=O)N1)C(=O)N[C@@H](CCCNC(=N)N)C(=O)N[C@@H](Cc1ccc(O)cc1)C(N)=O [Compound 17]

Compound: Sulfo-Cy5-[K4]hPP (from UniProt P01298)
- Kd (Y4R [15]): 5.6 nM

Compound: hPP (from UniProt P01298)
- Ki [16]: 17 nM
- Ki (Y4R [17]): 0.1 nM
- Ki (Y4R [18]): 0.079 nM
- Ki [19]: > 3000 nM
- Ki [20]: 440 nM
